Laboratory results: BindingDB's records for doi:10.7270/Q2H993NJ (University of Pittsburgh, 2010)
Where “and” joins values, the source holds several entries; their conditions need not be identical. Equal values may be shown once.

The molecules below were run against Furin (Homo sapiens, UniProt P09958) (assay: furin inhibitor potency, dose response, biochemical, fluorescence intensity, IC50 (AID 463182)).
Chain of Furin (P09958 whole entry): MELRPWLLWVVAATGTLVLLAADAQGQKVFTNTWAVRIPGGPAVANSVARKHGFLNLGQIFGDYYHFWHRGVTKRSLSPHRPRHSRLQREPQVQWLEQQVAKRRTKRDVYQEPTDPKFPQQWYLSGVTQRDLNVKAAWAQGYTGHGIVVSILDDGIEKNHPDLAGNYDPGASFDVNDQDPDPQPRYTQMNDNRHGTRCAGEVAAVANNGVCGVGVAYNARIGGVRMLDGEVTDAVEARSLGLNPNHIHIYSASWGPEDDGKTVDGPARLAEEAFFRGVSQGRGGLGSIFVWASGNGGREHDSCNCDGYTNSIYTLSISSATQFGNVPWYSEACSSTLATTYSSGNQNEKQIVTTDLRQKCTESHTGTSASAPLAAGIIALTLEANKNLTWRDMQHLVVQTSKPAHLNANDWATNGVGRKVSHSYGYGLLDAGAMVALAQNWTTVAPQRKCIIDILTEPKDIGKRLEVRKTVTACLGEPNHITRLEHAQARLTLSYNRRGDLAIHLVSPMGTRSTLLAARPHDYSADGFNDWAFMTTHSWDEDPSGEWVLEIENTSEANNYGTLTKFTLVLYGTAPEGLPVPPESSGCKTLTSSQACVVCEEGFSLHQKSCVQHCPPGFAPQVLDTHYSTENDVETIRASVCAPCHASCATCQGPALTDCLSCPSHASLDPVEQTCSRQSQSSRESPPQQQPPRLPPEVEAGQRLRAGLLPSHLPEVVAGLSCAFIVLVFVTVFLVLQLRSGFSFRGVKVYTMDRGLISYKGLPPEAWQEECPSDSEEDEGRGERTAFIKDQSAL
`CC1(C)CC(=O)C(=CNc2cccnc2)C(=O)C1` showed an IC50 greater than 50 µM.
`CCCOP(=O)(c1ccc(N(C)C)cc1)C(Nc1ccccc1)c1ccc(N(C)C)cc1` (centres undefined) showed an IC50 greater than 50 µM.
Molecule `Cc1cccc(NC=C2C(=O)CC(C)(C)CC2=O)n1` has an IC50 greater than 50 µM.
For `CCN1CCS/C1=C\C=C\C1=[N+](CC)CCS1` [3-ethyl-2-[(E,3E)-3-(3-ethylthiazolidin-2-ylidene)prop-1-enyl]-2-thiazolin-3-ium;iodide], the IC50 was 33.8 µM and 31.5 µM.
For `CC1(C)CC(=O)C(=CNn2cnc3ccccc3c2=O)C(=O)C1` [5,5-Dimethyl-2-[(4-oxo-4H-quinazolin-3-ylamino)-methylene]-cyclohexane-1,3-dione], the IC50 was greater than 50 µM.
For `Cc1cccc(-n2c(O)c(C=CC=Nc3ccccc3)c(=O)[nH]c2=O)c1` [(5Z)-1-(3-methylphenyl)-5-[(E)-3-phenylazanylprop-2-enylidene]-1,3-diazinane-2,4,6-trione], the IC50 was greater than 50 µM.
`Cc1ccccc1-n1c(O)c(C=Nc2ccc(N(C)C)cc2)c(=O)[nH]c1=O` [SMR000102641] gave an IC50 greater than 50 µM.
`Cc1cccc(C=C2SC(NN=C3CC4CCC3(C)C4(C)C)=NC2=O)c1` (centres undefined) [SMR000159419] gave an IC50 greater than 50 µM.
With `CSc1nc(N)c(N=Nc2ccc([As](=O)(O)O)cc2)c(O)n1` [[4-[(2Z)-2-(4-azanyl-2-methylsulfanyl-6-oxidanylidene-pyrimidin-5-ylidene)hydrazinyl]phenyl]arsonic acid] the IC50 was greater than 50 µM.
